In test [1] the test system is HL-60. Briefly: Inhibitory activity against TPA-induced superoxide (O2-) generation in human promyelocytic leukemia HL-60 cells, at 100 uM concentration. It is filed as functional.
Test [2] has as its system HL-60. Briefly: Cell viability in TPA-induced superoxide (O2-) generation in human promyelocytic leukemia HL-60 cells, at 100 uM concentration. The format is functional.

For eleven compounds, inhibition and Cell viability results are on record in ChEMBL document CHEMBL1133211, “Synthesis of feruloyl-myo-inositols and their inhibitory effects on superoxide generation” (2000).

The structures appear in SMILES notation.

A word on the inhibition: it is the change of the read-out against control, counted positive when it falls. Low values mean little suppression, high ones strong suppression.

`COc1cc(/C=C/C(=O)O[C@@H]2[C@H]3OC4(CCCCC4)O[C@@H]3[C@@H](OC(=O)/C=C/c3ccc(OC(C)=O)c(OC)c3)[C@@H]3OC4(CCCCC4)O[C@H]23)ccc1OC(C)=O` registered an inhibition at 100 µM in test [1] of approximately 25%. This compound also showed a Cell viability in test [2] of approximately 60%.
The compound `COc1cc(/C=C/C(=O)O[C@@H]2[C@H](O)[C@@H](O)[C@H](O)[C@@H](O)[C@@H]2OC(=O)/C=C/c2ccc(O)c(OC)c2)ccc1O` yielded an inhibition at 100 µM in test [1] of approximately 20%. Further, the Cell viability in test [2] was approximately 80%.
Taken in the same sequence, the figures for `COc1cc(/C=C/C(=O)O[C@@H]2[C@H]3OC4(CCCCC4)O[C@@H]3[C@@H](OC(=O)/C=C/c3ccc(O)c(OC)c3)[C@@H]3OC4(CCCCC4)O[C@H]23)ccc1O` were approximately 30% and approximately 60%.
As to `COc1cc(/C=C/C(=O)O[C@H]2[C@@H](O)[C@@H](O)[C@H](OC(=O)/C=C/c3ccc(O)c(OC)c3)[C@@H](O)[C@@H]2O)ccc1O`, the inhibition at 100 µM in test [1] is approximately 5%. Also, the Cell viability in test [2] is on record as approximately 80%.
`COC(=O)/C=C/c1ccc(O)c(OC)c1`: the inhibition at 100 µM in test [1] was approximately 2%. For the same compound, the Cell viability in test [2] is approximately 80%.
For the compound `COc1cc(/C=C/C(=O)O[C@@H]2[C@H](OC(C)=O)[C@@H](OC(C)=O)[C@H](OC(C)=O)[C@@H](OC(C)=O)[C@@H]2OC(=O)/C=C/c2ccc(OC(C)=O)c(OC)c2)ccc1OC(C)=O`, the inhibition at 100 µM in test [1] is approximately 100%. Also, the Cell viability in test [2] is approximately 60%.
`COc1cc(/C=C/C(=O)O)ccc1OC(C)=O` yielded an inhibition at 100 µM in test [1] of approximately 2%. This compound also returned a Cell viability in test [2] of approximately 82%.
`COc1cc(/C=C/C(=O)O)ccc1O` [FERULATE] returned an inhibition at 100 µM in test [1] of approximately 12%. The compound further returned a Cell viability in test [2] of approximately 80%.
Turning to `CCOC(=O)/C=C/c1ccc(O)c(OC)c1` [ETHYL FERULATE], the inhibition at 100 µM in test [1] is approximately 9%. For the same compound, in test [2], the Cell viability is listed as approximately 80%.
Taken in the same sequence, the figures for `COc1cc(/C=C/C(=O)O[C@H]2[C@@H](O)[C@@H](O)[C@H](OC(=O)/C=C/c3ccc(OC(C)=O)c(OC)c3)[C@@H](O)[C@@H]2O)ccc1OC(C)=O` were approximately 20% and approximately 72%.
Take `COc1cc(/C=C/C(=O)O[C@@H]2[C@H](O)[C@H](OC(C)=O)[C@@H](OC(C)=O)[C@H](OC(C)=O)[C@H]2OC(C)=O)ccc1OC(C)=O`: in test [1], the inhibition at 100 µM is approximately 5%. Further, the Cell viability in test [2] is approximately 45%.
